Source: patent US9127103B2, “Polymerizable liquid crystal compound, a liquid crystal composition comprising the compound, and an optically anisotropic body comprising the same” (LG CHEM, LTD., priority 2012, dated 2015)

What was measured:
[1] = Measurement of solubility of the compound in various solvents; assay type: physicochemical; conditions: for Solubility TXB: TXB = Toluene:Xylene:Butyl cellosolve 7:2:1 (weight ratio); for Solubility TXB / Solubility Cyclopentanone / Solubility Toluene + Heated: 25 parts by weight per 100 parts of solution; for Solubility Toluene + Heated: room temperature solution heated about 10 secs with a heat gun; for Solubility Toluene: 25 parts by weight of compound per 100 parts by weight of total solution
Method: At this time, the content of each compound in the solvent was 25 parts by weight per 100 parts by weight of total solution. In the following Table 1, when the compound was completely dissolved in the solvent and the solution was transparent, it was indicated by ‘◯’; when the compound was dissolved in the solvent but the solution was opaque, it was indicated by ‘Δ’; and when the compound was not dissolved at all, it was indicated by ‘×’. And, the term ‘heated’ in Table 1 means that the solution of room temperature including the compound was heated for about 10 secs by using a heat gun.

[2] = Measurement of birefringence (Δn) of retardation films by Axoscan; assay type: physicochemical; conditions: retardation film of the compound; solvent TXB, TAC film; Δn calculated from retardation value and film thickness
Method: The liquid crystal composition coated with a roll coating method on a TAC (triacetyl cellulose) film on which norbornene-based photoaligning material was coated, and dried at about 80° C. for 2 mins so as that the liquid crystal compound was aligned. And then, the retardation film was prepared by exposing the film to a non-polarized UV from a high pressure mercury lamp of 200 mW/cm^2 so as to fixing the oriented state of the liquid crystal.
Like above method, the compositions including any one of compounds RM-02 to RM-08 instead of compound RM-01 were prepared, and the retardation films were prepared respectively by using the same.
And, the retardation film was prepared substantially according to the same method as in Preparation Examples 1˜8, except that the compound of Chemical Formula 10 was used instead of compound RM-01.
Quantitative retardation values of the retardation films according to Preparation Examples 1˜8, Comparative Preparation Examples 1˜2, and Reference Example were measured by using Axoscan (made by Axomatrix Co.). At this time, the thickness of the film was independently measured and Δn was calculated from the obtained values.

SMILES | Solubility TXB [1] | Solubility Cyclopentanone [1] | Solubility Toluene + Heated [1] | Δn (Solvent, Film) [2] | Solubility Toluene [1] | Solubility in toluene [1] | Solubility in toluene with heating [1] | Solubility in TXB mixed solvent [1]
C=CC(=O)OCCCCCCOc1ccc2cc(C(=O)Oc3ccc(OC(=O)c4ccc5cc(OCCCCCCOC(=O)C=C)ccc5c4)cc3)ccc2c1 [RM-10, reference compound] |  |  |  |  |  | not dissolved in toluene at all | just opaque solution was obtained | not dissolved in TXB mixed solvent at all
C=CC(=O)OCCCCCCOc1ccc2cc(C(=O)Oc3ccc(OC(=O)c4ccc5cc(OCCCCCCOC(=O)C=C)ccc5c4)c(C=O)c3)ccc2c1 [RM-02] | ∘ |  | ∘ | 0.18 (TXB, TAC) |  |  |  | 
C=CC(=O)OCCCOc1ccc2cc(C(=O)Oc3ccc(OC(=O)c4ccc5cc(OCCCOC(=O)C=C)ccc5c4)cc3)ccc2c1 [RM-09, reference compound] |  |  |  |  |  | not dissolved in toluene at all | just opaque solution was obtained | not dissolved in TXB mixed solvent at all
C=CC(=O)OCCCOc1ccc(C(=O)Oc2ccc(OC(=O)c3ccc(OCCCOC(=O)C=C)cc3)c(C)c2)cc1 [RM257, reference compound] | ∘ | ∘ | ∘ | 0.12 (TXB, TAC) |  |  |  | 
C=CC(=O)OCCCCCCOc1ccc2cc(C(=O)Oc3ccc(OC(=O)c4ccc5cc(OCCCCCCOC(=O)C=C)ccc5c4)c(S(=O)(=O)CC)c3)ccc2c1 [RM-08] | ∘ | ∘ | ∘ | 0.22 (TXB, TAC) |  |  |  | 
C=CC(=O)OCCCCCCOc1ccc2cc(C(=O)Oc3ccc(OC(=O)c4ccc5cc(OCCCCCCOC(=O)C=C)ccc5c4)c([N+](=O)[O-])c3)ccc2c1 [RM-04] | ∘ | ∘ | ∘ | 0.20 (TXB, TAC) |  |  |  | 

Continued, in another order:

Solubility TXB [1] | Solubility Cyclopentanone [1] | Solubility Toluene + Heated [1] | Δn (Solvent, Film) [2] | Solubility Toluene [1] | Solubility in toluene [1] | Solubility in toluene with heating [1] | SMILES | Solubility in TXB mixed solvent [1]
∘ | ∘ | ∘ | 0.20 (TXB, TAC) |  |  |  | C=CC(=O)OCCCCCCOc1ccc2cc(C(=O)Oc3ccc(OC(=O)c4ccc5cc(OCCCCCCOC(=O)C=C)ccc5c4)c(S(C)(=O)=O)c3)ccc2c1 [RM-06] | 
∘ | ∘ | ∘ | 0.19 (TXB, TAC) | ∘ |  |  | C=CC(=O)OCCCOc1ccc2cc(C(=O)Oc3ccc(OC(=O)c4ccc5cc(OCCCOC(=O)C=C)ccc5c4)c(S(=O)(=O)CC)c3)ccc2c1 [RM-07] | 
∘ | ∘ | ∘ | 0.19 (TXB, TAC) | ∘ |  |  | C=CC(=O)OCCCOc1ccc2cc(C(=O)Oc3ccc(OC(=O)c4ccc5cc(OCCCOC(=O)C=C)ccc5c4)c(S(C)(=O)=O)c3)ccc2c1 [RM-05] | 
∘ | ∘ | ∘ | 0.17 (TXB, TAC) |  |  |  | C=CC(=O)OCCCOc1ccc2cc(C(=O)Oc3ccc(OC(=O)c4ccc5cc(OCCCOC(=O)C=C)ccc5c4)c(C=O)c3)ccc2c1 [RM-01] | 
∘ | ∘ | ∘ | 0.17 (TXB, TAC) | ∘ |  |  | C=CC(=O)OCCCOc1ccc2cc(C(=O)Oc3ccc(OC(=O)c4ccc5cc(OCCCOC(=O)C=C)ccc5c4)c([N+](=O)[O-])c3)ccc2c1 [RM-03] | 
